The test system of assay [1] is GRP78, ATF6, IRE1 and PERK. The experiment in a line: qRT-PCR of ER stress markers in pancreatic cancer cells. Format: cell-based, human and murine. As to conditions: 50 µM, 2 h. As to the method:
Total RNA was extracted using a phenol/chloroform method, after which 1 µg RNA was reverse-transcribed using an iScript Reverse Transcription Supermix kit according to the manufacturer’s instructions (Bio-Rad Laboratories). 25 ng cDNA was amplified using 10 µl of an IQ™ SYBR Green Supermix (Bio-Rad Laboratories). Primers were designed using qPrimer Depot software (http://primerdepot.nci.nih.gov/). qRT-PCR was carried out using an iQ^TM5 cycler (Bio-Rad Laboratories). The cycling conditions used were: 30 s at 95 °C, followed by 40 cycles of denaturation (15 s at 95 °C) and annealing/extension (30 s at 60 °C). The same cDNA preparations were used to quantify the expression of genes of interest and that of the housekeeping gene S14, which was used to normalize the gene expression levels. Relative quantitation of each sample was performed using Gene Expression Quantitation software (Bio-Rad Laboratories). The results were expressed in arbitrary units. For each gene, the expression level in untreated cells was arbitrarily set at “1”.
On the technique in general: Quantitative PCR measures a nucleic acid by following its amplification.

The subject of assay [2] is mitochondrial depolarization. Put plainly: Mitochondrial depolarization assay (JC-1). The settings on record: 50 µM, 2 h, JC1 staining. In kind it is cell-based, human and murine. As to the method: Staining with JC-1 fluorescent probe (Biotium Inc., Freemont, CA, USA) was performed as detailed in Riganti et al.. The resulting fluorescence units were used to calculate the percentage of green-fluorescent (i.e., depolarized) mitochondria versus red-fluorescent (i.e., polarized) mitochondria.

Assay [3] relates to BxPC3 cells. Put plainly: Cell viability MTT assay 48 h. Format: cell-based. The settings on record: Homo sapiens, BXPC-3; MTT 48 h; read-out: Activity EC50 ± SEM, BxPC3. As to the method:
(§1) Cell viability was assessed using a MTT assay at 48 h. On day 1, 25,000 cells/well were seeded into 96-well plates in 100 µl culture medium. On day 2, drugs at concentrations ranging from 1 µM to 100 µM were added. In all experiments the drug-solvents (EtOH, DMSO) were added as controls to evaluate possible solvent cyto-toxicities. After the established incubation time with drugs (48 h), MTT (0.5 mg/ml) was added to each well, and after 3–4 h incubation at 37 °C, the supernatants were removed. The formazan crystals formed were solubilized using 100 µl DMSO/EtOH (1:1) after which the absorbance values at 570 and 630 nm were determined using a microplate reader Victor 3 from PerkinElmer Life Sciences.

In assay [4] the test system is MiaPaCa2 cells. The experiment in a line: Cell viability MTT assay 48 h. As to conditions: Homo sapiens, MIA PaCa-2; MTT 48 h; read-out: Activity EC50 ± SEM, MiaPaCa2. In kind it is cell-based. As to the method:
as §1
In general terms: Tetrazolium assays rely on reduction of a dye to a coloured formazan, in cell work by metabolically active cells.

Assay [5] has as its system PANC-1 cells. The experiment in a line: Cell viability MTT assay 48 h. The settings on record: Homo sapiens. In kind it is cell-based. As to the method:
as §1

Assay [6] concerns KP02 cells. Put plainly: Cell viability MTT assay 48 h. In kind it is cell-based. As to conditions: Mus musculus; MTT 48 h; read-out: Activity EC50 ± SEM, KP02. As to the method: as §1
For assay [7], the system named is HPDE cells. Put plainly: Cell viability MTT assay 48 h. Format: cell-based. The settings on record: Homo sapiens, MTT 48 h, read-out: Activity EC50 ± SEM, HPDE (normal cells). As to the method:
as §1

The subject of assay [8] is AspC1 cells. The experiment in a line: Cell viability MTT assay 48 h. In kind it is cell-based. As to conditions: Homo sapiens, MTT 48 h, read-out: Activity EC50 ± SEM, AspC1. As to the method:
as §1

Assay [9] deals with T1, sigma-1 receptors (Homo sapiens, UniProt Q99720).
T1 construct: endogenous in cells; host or cells: PANC-1, MiaPaCa2 (whole cells)
T1 sequence (Q99720 whole entry): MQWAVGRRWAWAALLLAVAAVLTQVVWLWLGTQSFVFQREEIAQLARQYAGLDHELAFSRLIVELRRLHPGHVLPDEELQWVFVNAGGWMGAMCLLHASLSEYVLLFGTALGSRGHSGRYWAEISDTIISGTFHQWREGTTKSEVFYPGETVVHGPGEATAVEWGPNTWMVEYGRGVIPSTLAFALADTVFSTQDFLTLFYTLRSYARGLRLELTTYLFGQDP
The experiment in a line: Flow cytometry displacement of sigma-1 fluorescent ligand LM1 in human pancreatic cancer cells. In kind it is binding. As to the method:
(10 µM) was co-incubated. At the end of the incubation periods, the cells were washed twice with PBS, detached with […] Cell Dissociation Solution (Sigma Chemical Co.) for 10 min at 37 °C, centrifuged at 13,000 g for 5 min and resuspended in 500 µl PBS. Fluorescence was recorded using a Bio-Guava® easyCyte™ 5 Flow Cytometry System (Millipore, Billerica, MA, USA), equipped with a 530 nm band pass filter. For each analysis, 50,000 events were collected and analyzed using InCyte software (Millipore).
On the technique in general: A flow cytometer gives signals particle by particle.

For orientation: EC50 means the concentration needed to bring the measured effect to its halfway point. A word on the IC50: it is the concentration that gives 50% inhibition. For the compound `CN(C)C(=S)N/N=C1\C(=O)N(CCCCN2CCC3(CC2)OCc2ccccc23)c2ccccc21` [FA4, (Z)-2-(1-(4-(3 H-spiro[isobenzofuran-1,4’-piperidine]-1’-yl)butyl)-2-oxoindolin-3-ylidene)-N,N-dimethylhydrazinecarbothioamide], in [1], the “mRNA expression of ER stress markers GRP78, ATF6, IRE1, PERK” value is given as “increased upon treatment with FA4 in all the cells tested, except in MiaPaCa2 cells”. Besides, the mitochondrial depolarization result in [2] is on record as “all FA4-treated cells had depolarized (i.e., damaged) mitochondria, except MiaPaCa2”. Also, the EC50 in assay [3] worked out at 1360 ± 200 nM; in assay [4], 1980 ± 400 nM; in [5] (MTT 48 h, read-out: Activity EC50 ± SEM, PANC-1), 3010 ± 800 nM; in [6], 880 ± 100 nM; in [7] it was 6110 ± 1100 nM; in assay [8], 1390 ± 300 nM. Further, the IC50 was 3010 nM in assay [5] (read-out: IC50 in PANC1 cells (discussion)); 53.2 ± 5.6 nM in assay [9] (Flow Cytometry, IC50 ± SEM, Sigma-1, MiaPaCa2, MiaPaCa2 cells, displacement of LM1); 51.3 ± 4.3 nM in [9] (Flow Cytometry, IC50 ± SEM, Sigma-1, PANC-1, PANC-1 cells, displacement of LM1); roughly 50 nM in assay [9] (IC50 at sigma-1 receptor by flow cytometry (discussion), PANC-1 and MiaPaCa2 cells). In assay [9] (flow cytometry IC50 values), the “lower affinity for the sigma-1 receptor compared to the sigma-2 receptor” value was found to be 5 fold.

The record behind these values is paper PMC8648660, “Multifunctional thiosemicarbazones targeting sigma receptors: in vitro and in vivo antitumor activities in pancreatic cancer models” (Cellular Oncology, 2021).
